From patent publication US20260027083A1, “USE OF PPAR AGONIST FOR IMPROVEMENT OF ENERGY METABOLISM” (NOVMETAPHARMA CO., LTD., priority 2022, published 2026)

How the values were obtained:
PPARα = molecular target: T1, PPARα (Homo sapiens, UniProt Q07869); assay: Gal4 trans-activated luciferase reporter assay, PPARα-LBD, HEK293; format: cell-based; details: HEK293, drug treatment 24 hours, FIG. 1
T1 construct: three types of pcDNA5-GAL4 and pGALRE-luc containing PPARα-LBD, PPARβ/δ-LBD, or PPARγ-LBD; GAL4 (fusion partner from vector pcDNA5-GAL4); expressed in transfected cells; host or cells: HEK293
T1 sequence (Q07869 239-466 limits assumed): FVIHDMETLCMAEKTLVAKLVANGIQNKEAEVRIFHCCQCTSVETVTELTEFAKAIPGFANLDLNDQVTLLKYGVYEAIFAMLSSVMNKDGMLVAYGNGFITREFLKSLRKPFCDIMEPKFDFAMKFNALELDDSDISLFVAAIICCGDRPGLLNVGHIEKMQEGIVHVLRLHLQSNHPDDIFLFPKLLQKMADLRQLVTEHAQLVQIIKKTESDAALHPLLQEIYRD
Description: A plasmid was transformed into E. coli (DE3, Rosetta) and transfected into HEK293 cells and used. Referring to known literatures such as Kanno, Y. & Inouye, Y. J Toxicol Sci 35, 515-525 (2010), Zhao, S. et al. J Nat Prod 79, 879-885 (2016), etc., luciferase assay was performed on three types of pcDNA5-GAL4 and pGALRE-luc containing PPARα-LBD, PPARβ/δ-LBD, or PPARγ-LBD. pProEX-PPAR and pET-28a were used for purification of His-tagged recombinant hPPAR-LBD protein.
A HEK293 cell line was cultured in Dulbecco's Modified Eagle Medium (DMEM) containing 10% Fetal Bovine Serum (FBS) and 1% penicillin-streptomycin (P/S). […]
Transfected HEK293 cells were treated with a drug and after 24 hours, the cells were collected, resuspended in a luciferase lysis buffer (Promega, Madison, Wisconsin, USA), and incubated on ice for 10 minutes. […] Next, Firefly Luciferase (Fluc) and Renilla Luciferase (Rluc) activities were measured using the Dual Luciferase Reporter Assay System (Promega, Madison, Wisconsin, USA). […]
To confirm whether a compound represented by Chemical Formula 1 was a PPAR agonist, Gal4 trans-activated luciferase assay was performed. Specifically, HEK293 cells were transfected with the Gal4-luciferase reporter systems of PPARα, PPARβ/δ, and PPARγ, respectively, harvested after drug treatment for 24 hours, and then analyzed by Dual-Luciferase assay. […]

[1] = molecular target: T2, His-tagged recombinant human PPARγ ligand binding domain (Homo sapiens, UniProt P37231); assay: CNBr-bead conjugation (pull-down) assay, hPPARγ-LBD; details: CNBr-coupled drug, positive control rosiglitazone, FIG. 2
T2 construct: made in house; host or cells: E. coli (DE3, Rosetta)
T2 sequence (P37231 238-503 limits assumed): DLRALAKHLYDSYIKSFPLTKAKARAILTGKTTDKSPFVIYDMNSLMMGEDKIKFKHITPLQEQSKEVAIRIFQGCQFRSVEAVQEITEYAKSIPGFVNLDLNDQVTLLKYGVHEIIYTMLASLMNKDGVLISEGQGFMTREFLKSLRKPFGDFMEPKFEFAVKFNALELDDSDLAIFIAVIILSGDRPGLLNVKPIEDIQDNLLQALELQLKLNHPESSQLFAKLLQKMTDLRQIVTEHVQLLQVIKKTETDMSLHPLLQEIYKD
Description: A compound of the present invention represented by Chemical Formula 1 was synthesized by DAEJUNG Chemicals & Metals (Gyeonggi-do, Korea) (indicated as ‘D6’ in the drawing). WY14643, GW501516, and rosiglitazone were purchased from Sigma-Aldrich (St. Louis, MO, USA). The compounds were dissolved in dimethyl sulfoxide (DMSO), diluted in a culture solution, and used in the experiment. Cyanogen bromide (CNBr)-activated Sepharose 4B was purchased from Sigma-Aldrich (St. Louis, MO, USA). His-tagged recombinant human PPAR-ligand binding domain (LBD) was expressed in E. coli (DE3, Rosetta) and then purified and used. A His antibody was purchased from Cell Signaling Technology (Danvers, Massachusetts, USA). 3-Isobutyl-1-methylxanthine (IBMX), dexamethasone, bovine pancreatic insulin, and Oil Red O were purchased from Sigma-Aldrich (St. Louis, MO, USA). A PRO-PREP™ Protein Extraction Solution was purchased from iNtRON Biotechnology (iNtRON Biotech., Korea). […]
100 mg of CNBr-activated Sepharose 4B was added to an e-tube, and then the beads were activated by rotating with 1 ml of 1 mM HCl for 10 minutes at room temperature. […] Each e-tube was added with the drug and rotated overnight at 4° C., at which time the concentration was measured to be 20 μM. […] The supernatant was completely removed, and the pellet was detected by Western blotting. […]

## COc1ccc(-c2cc(=O)oc3c(C)c(OC(=O)[C@H](Cc4c[nH]c5ccccc45)NC(=O)OC(C)(C)C)ccc23)cc1 [Chemical Formula 1, [4-(4-methoxyphenyl)-8-methyl-2-oxochromen-7-yl] (2S)-3-(1H-indol-3-yl)-2-[(2-methylpropan-2-yl)oxycarbonylamino]propanoate]
PPARα
  relative luciferase activity (Fluc to Rluc) for PPARα: dose-dependently increased
[1]
  conjugation (binding) to hPPARγ-LBD, Western blotting: as much potently as a PPAR agonist used as a positive control
